Consider 14 compounds from patent US9125913B2, “Bcl-2-selective apoptosis-inducing agents for the treatment of cancer and immune diseases” (AbbVie Inc., priority 2008, dated 2015).

In the test the test system is GST-Bcl-2. Briefly: TR-FRET binding assay, Bcl-2. The conditions noted are these: TR-FRET Ki values. Here is the method: Tb-anti-GST antibody was purchased from Invitrogen (Catalog No. PV4216).
Representative compounds were serially diluted in dimethyl sulfoxide (DMSO) starting at 50 μM (2× starting concentration; 10% DMSO) and 10 μL were transferred into a 384-well plate.
The samples were then mixed on a shaker for 1 minute and incubated for an additional 3 hours at room temperature. For each assay, the probe/antibody and protein/probe/antibody were included on each assay plate as negative and positive controls, respectively. Fluorescence was measured on the Envision (Perkin Elmer) using a 340/35 nm excitation filter and 520/525 (F-Bak peptide) and 495/510 nm (Tb-labeled anti-Histidine antibody) emission filters.
The inhibition constant (Ki) is the dissociation constant of an enzyme-inhibitor complex or a protein/small molecule complex, wherein the small molecule is inhibiting binding of one protein to another protein or peptide. […] Inhibition constants were determined using Wang's equation (Wang Z-X., An Exact Mathematical Expression For Describing Competitive Binding Of Two Different Ligands To A Protein Molecule. FEBS Lett. 1995, 360:111-4).
(In general: Time-resolved FRET reads energy transfer from a long-lived donor to a nearby acceptor.)
As for `CC1(C)CCC(CN2CCN(c3ccc(C(=O)NS(=O)(=O)c4ccc(NCC5CCOC5)c([N+](=O)[O-])c4)c(Oc4cccc5[nH]cnc45)c3)CC2)=C(c2ccc(Cl)cc2)C1` (centres unmarked) [EXAMPLE 439, 2-(1H-benzimidazol-4-yloxy)-4-(4-{[2-(4-chlorophenyl)-4,4-dimethylcyclohex-1-en-1-yl]methyl}piperazin-1-yl)-N-({3-nitro-4-[(tetrahydrofuran-3-ylmethyl)amino]phenyl}sulfonyl)benzamide], the “Binding selectivity ratio (Bcl-XL Ki/Bcl-2 Ki)” value (“Binding selectivity ratio” below) stood at 1496.8. Consider `CN1CC(Nc2ccc(S(=O)(=O)NC(=O)c3ccc(N4CCN(CC5=C(c6ccc(Cl)cc6)CC(C)(C)CC5)CC4)cc3Oc3ccc4[nH]ccc4c3)cc2[N+](=O)[O-])CC1=O` (centres unmarked) [EXAMPLE 281, 4-(4-{[2-(4-chlorophenyl)-4,4-dimethylcyclohex-1-en-1-yl]methyl}piperazin-1-yl)-2-(1H-indol-5-yloxy)-N-({4-[(1-methyl-5-oxopyrrolidin-3-yl)amino]-3-nitrophenyl}sulfonyl)benzamide], for which the “Binding selectivity ratio” value amounted to 1558.9. For the compound `CC1(C)CCC(CN2CCN(c3ccc(C(=O)NS(=O)(=O)c4ccc(NCC5(C)COC5)c([N+](=O)[O-])c4)c(Oc4ccc5[nH]ccc5c4)c3)CC2)=C(c2ccc(Cl)cc2)C1` [EXAMPLE 264, 4-(4-{[2-(4-chlorophenyl)-4,4-dimethylcyclohex-1-en-1-yl]methyl}piperazin-1-yl)-2-(1H-indol-5-yloxy)-N-[(4-{[(3-methyloxetan-3-yl)methyl]amino}-3-nitrophenyl)sulfonyl]benzamide], the “Binding selectivity ratio” value is listed as over 2808.4. Regarding `CC1(C)CCC(CN2CCN(c3ccc(C(=O)NS(=O)(=O)c4ccc(NC5CCN(C6CCOCC6)CC5)c([N+](=O)[O-])c4)c(Oc4ccc5[nH]ccc5c4)c3)CC2CO)=C(c2ccc(Cl)cc2)C1` (centres unmarked) [EXAMPLE 219, 4-[4-{[2-(4-chlorophenyl)-4,4-dimethylcyclohex-1-en-1-yl]methyl}-3-(hydroxymethyl)piperazin-1-yl]-2-(1H-indol-5-yloxy)-N-({3-nitro-4-[(1-tetrahydro-2H-pyran-4-ylpiperidin-4-yl)amino]phenyl}sulfonyl)benzamide], the “Binding selectivity ratio” value turned out to be 126.8. The same measure for `COCCN1CCC(Nc2ccc(S(=O)(=O)NC(=O)c3ccc(N4CCN(CC5=C(c6ccc(Cl)cc6)CC(C)(C)CC5)CC4)cc3Oc3cccc4[nH]ccc34)cc2[N+](=O)[O-])CC1` [EXAMPLE 194, 4-(4-{[2-(4-chlorophenyl)-4,4-dimethylcyclohex-1-en-1-yl]methyl}piperazin-1-yl)-2-(1H-indol-4-yloxy)-N-[(4-{[1-(2-methoxyethyl)piperidin-4-yl]amino}-3-nitrophenyl)sulfonyl]benzamide]: 212.4. Under `COCCOCCSc1ccc(S(=O)(=O)NC(=O)c2ccc(N3CCN(CC4=C(c5ccc(Cl)cc5)CC(C)(C)CC4)CC3)cc2Oc2ccc3[nH]ccc3c2)cc1[N+](=O)[O-]` [EXAMPLE 380, 4-(4-{[2-(4-chlorophenyl)-4,4-dimethylcyclohex-1-en-1-yl]methyl}piperazin-1-yl)-2-(1H-indol-5-yloxy)-N-[(4-{[2-(2-methoxyethoxy)ethyl]thio}-3-nitrophenyl)sulfonyl]benzamide] stands 2107.3; under `O=C(NS(=O)(=O)c1ccc(NCc2cccs2)c([N+](=O)[O-])c1)c1ccc(N2CCN(Cc3ccccc3-c3ccc(Cl)cc3)CC2)cc1Oc1ccccc1` [Example 162, 4-{4-[(4′-chloro-1,1′-biphenyl-2-yl)methyl]piperazin-1-yl}-N-({3-nitro-4-[(thien-2-ylmethyl)amino]phenyl}sulfonyl)-2-phenoxybenzamide], 123.8.

As for `CC1(C)CCC(CN2CCN(c3ccc(C(=O)NS(=O)(=O)c4ccc(NC5CCN(Cc6nccs6)CC5)c([N+](=O)[O-])c4)c(Oc4ccc5[nH]ccc5c4)c3)CC2)=C(c2ccc(Cl)cc2)C1` [EXAMPLE 230, 4-(4-{[2-(4-chlorophenyl)-4,4-dimethylcyclohex-1-en-1-yl]methyl}piperazin-1-yl)-2-(1H-indol-5-yloxy)-N-[(3-nitro-4-{[1-(1,3-thiazol-2-ylmethyl)piperidin-4-yl]amino}phenyl)sulfonyl]benzamide], the “Binding selectivity ratio” value was over 74.8. For `CC1(C)CCC(CN2CCN(c3ccc(C(=O)NS(=O)(=O)c4cnc(NC5CCN(C6CC6)CC5)c(Cl)c4)c(Oc4cccc5[nH]ncc45)c3)CC2)=C(c2ccc(Cl)cc2)C1` [EXAMPLE 448, N-({5-chloro-6-[(1-cyclopropylpiperidin-4-yl)amino]pyridin-3-yl}sulfonyl)-4-(4-{[2-(4-chlorophenyl)-4,4-dimethylcyclohex-1-en-1-yl]methyl}piperazin-1-yl)-2-(1H-indazol-4-yloxy)benzamide], the “Binding selectivity ratio” value was 3119.

In the case of `CC1(C)CCC(CN2CCN(c3ccc(C(=O)NS(=O)(=O)c4ccc(NCC5CCOCC5)c(C(F)(F)F)c4)c(Oc4ccc5[nH]ccc5c4)c3)CC2)=C(c2ccc(Cl)cc2)C1` [EXAMPLE 277, 4-(4-{[2-(4-chlorophenyl)-4,4-dimethylcyclohex-1-en-1-yl]methyl}piperazin-1-yl)-2-(1H-indol-5-yloxy)-N-{[4-[(tetrahydro-2H-pyran-4-ylmethyl)amino]-3-(trifluoromethyl)phenyl]sulfonyl}benzamide], the “Binding selectivity ratio” value is over 22.2.

Consider `CC1(C)CN(c2ccc(S(=O)(=O)NC(=O)c3ccc(N4CCN(Cc5ccccc5-c5ccc(Cl)cc5)CC4)cc3Oc3ccccc3)cc2)C1=O` [Example 30, 4-{4-[(4′-chloro-1,1′-biphenyl-2-yl)methyl]piperazin-1-yl}-N-{[4-(3,3-dimethyl-2-oxoazetidin-1-yl)phenyl]sulfonyl}-2-phenoxybenzamide], for which the “Binding selectivity ratio” value is reported as over 6.4. Take `O=C(NS(=O)(=O)c1ccc(NCCCN2CCOCC2)c([N+](=O)[O-])c1)c1ccc(N2CCN(Cc3ccccc3-c3ccc(Cl)cc3)CC2)cc1Oc1ccc2[nH]ccc2c1` [Example 59, 4-{4-[(4′-chloro-1,1′-biphenyl-2-yl)methyl]piperazin-1-yl}-2-(1H-indol-5-yloxy)-N-({4-[(3-morpholin-4-ylpropyl)amino]-3-nitrophenyl}sulfonyl)benzamide]: the “Binding selectivity ratio” value is 1867.6. Under `CC1(C)CCC(CN2CCN(c3ccc(C(=O)NS(=O)(=O)c4cnc(NCC5CCOCC5)c(Br)c4)c(Oc4cccc5[nH]ccc45)c3)CC2)=C(c2ccc(Cl)cc2)C1` [EXAMPLE 325, N-({5-bromo-6-[(tetrahydro-2H-pyran-4-ylmethyl)amino]pyridin-3-yl}sulfonyl)-4-(4-{[2-(4-chlorophenyl)-4,4-dimethylcyclohex-1-en-1-yl]methyl}piperazin-1-yl)-2-(1H-indol-4-yloxy)benzamide] stands over 283.1; under `O=C(NS(=O)(=O)c1ccc(NCCCN2CCOCC2)c([N+](=O)[O-])c1)c1ccc(N2CCN(Cc3ccccc3-c3ccc(Cl)cc3)CC2)cc1Oc1ccc2ccccc2c1` [Example 36, 4-{4-[(4′-chloro-1,1′-biphenyl-2-yl)methyl]piperazin-1-yl}-N-({4-[(3-morpholin-4-ylpropyl)amino]-3-nitrophenyl}sulfonyl)-2-(2-naphthyloxy)benzamide], 11.3.
